Data: patent US8742098B2, “Inhibitors of Bruton's tyrosine kinase” (Hoffmann-La Roche Inc., priority 2011, dated 2014)

Tested on: B cell receptor-mediated activation of B cells in human blood
Assay: Inhibition of B cell activation in whole blood measured by CD69 expression
Assay type: cell-based
Conditions: anti-IgM stimulation, 20 hours, CD69-positive cells that are also CD20-positive, read-out: HWB IC50
Protocol: A procedure to test the ability of Btk inhibitors to suppress B cell receptor-mediated activation of B cells in human blood is as follows:
Human whole blood (HWB) is obtained from healthy volunteers, with the following restrictions: 24 hr drug-free, non-smokers. Blood is collected by venipuncture into Vacutainer tubes anticoagulated with sodium heparin. Test compounds are diluted to ten times the desired starting drug concentration in PBS (20×), followed by three-fold serial dilutions in 10% DMSO in PBS to produce a nine point dose-response curve. 5.5 μl of each compound dilution is added in duplicate to a 2 ml 96-well V bottom plate (Analytical Sales and Services, #59623-23); 5.5 μl of 10% DMSO in PBS is added to control and no-stimulus wells. HWB (100 μl) is added to each well, and after mixing the plates are incubated at 37 C, 5% CO2, 100% humidity for 30 minutes. Goat F(ab′)2 anti-human IgM (Southern Biotech, #2022-14) (10 μl of a 500 μg/ml solution, 50 μg/ml final concentration) is added to each well (except the no-stimulus wells) with mixing and the plates are incubated for an additional 20 hours.
At the end of the 20 hour incubation, samples are incubated with florescent-probe-labeled anti-bodies (15 μl PE Mouse anti-Human CD20, BD Pharmingen, #555623, and/or 20 ul APC Mouse anti-Human CD69, BD Pharmingen #555533) for 30 minutes, at 37 C, 5% CO2, 100% humidity. Included are induced control, unstained and single stains for compensation adjustments and initial voltage settings. Samples are then lysed with 1 ml of 1× Pharmingen Lyse Buffer (BD Pharmingen #555899), and plates are centrifuged at 1800 rpm for 5 minutes. Supernatants are removed via suction and the remaining pellets are lysed again with another 1 ml of 1× Pharmingen Lyse Buffer, and plates are spun down as before. Supernatants are aspirated and remaining pellets are washed in FACs buffer (PBS+1% FBS). After a final spin, the supernantants are removed and pellets are resuspended in 180 μl of FACs buffer. Samples are transferred to a 96 well plate suitable to be run on the HTS 96 well system on the BD LSR II flow cytometer.
Using appropriate excitation and emission wavelengths for the fluorophores used, data are acquired and percent positive cell values are obtained using Cell Quest Software. Results are initially analyzed by FACS analysis software (Flow Jo). […] The IC50 values are calculated using XLfit software version 3, equation 201.

| SMILES | IC50 [nM] |
| --- | --- |
| CC(C)(C)c1cc(F)c2c(=O)n(-c3cccc(-c4cnnc(Nc5ccc(C(=O)N6CCOCC6)cn5)c4)c3CO)ncc2c1 [Compound I-5, 6-tert-Butyl-8-fluoro-2-(2-hydroxymethyl-3-{6-[5-(morpholine-4-carbonyl)-pyridin-2-ylamino]-pyridazin-4-yl}-phenyl)-2H-phthalazin-1-one] | 890 |
| CC(C)(C)c1cc(F)c2c(=O)n(-c3cccc(-c4cn5ccnc5c(Nc5ccc(C(=O)N6CCOCC6)cc5)n4)c3CO)ncc2c1 [Compound I-7, 6-tert-Butyl-8-fluoro-2-(2-hydroxymethyl-3-{8-[4-(morpholine-4-carbonyl)-phenylamino]-imidazo[1,2-a]pyrazin-6-yl}-phenyl)-2H-phthalazin-1-one] | 112 |
| CC(C)(C)c1cc(F)c2c(=O)n(-c3cccc(-c4cc(Nc5ccc(C(=O)N6CCOCC6)cn5)c5ncnn5c4)c3CO)ncc2c1 [Compound I-1, 6-tert-Butyl-8-fluoro-2-(2-hydroxymethyl-3-{8-[5-(morpholine-4-carbonyl)-pyridin-2-ylamino]-[1,2,4]triazolo[1,5-a]pyridin-6-yl}-phenyl)-2H-phthalazin-1-one] | 350 |
| CC(C)(C)c1cc(F)c2c(=O)n(-c3cccc(-c4cc(Nc5ccc(C(=O)N6CCOCC6)cn5)c5ncccc5c4)c3CO)ncc2c1 [Compound I-13, 6-tert-Butyl-8-fluoro-2-(2-hydroxymethyl-3-{8-[5-(morpholine-4-carbonyl)-pyridin-2-ylamino]-quinolin-6-yl}-phenyl)-2H-phthalazin-1-one] | > 5000 |
| CC(C)N1CCN(c2ccc(Nc3cc(-c4cccc(-n5ncc6cc(C(C)(C)C)cc(F)c6c5=O)c4CO)nn4ccnc34)nc2)CC1 [Compound I-3, 6-tert-Butyl-8-fluoro-2-(2-hydroxymethyl-3-{8-[5-(4-isopropyl-piperazin-1-yl)-pyridin-2-ylamino]-imidazo[1,2-b]pyridazin-6-yl}-phenyl)-2H-phthalazin-1-one] | 40 |
| CC(C)(C)c1cc(F)c2c(=O)n(-c3cccc(-c4cc(Nc5ccc(C(=O)N6CCOCC6)cn5)c5nccn5n4)c3CO)ncc2c1 [Compound I-2, 6-tert-Butyl-8-fluoro-2-(2-hydroxymethyl-3-{8-[5-(morpholine-4-carbonyl)-pyridin-2-ylamino]-imidazo[1,2-b]pyridazin-6-yl}-phenyl)-2H-phthalazin-1-one] | 77 |
| CC(C)(C)c1cc(F)c2c(=O)n(-c3cccc(-c4cc(Nc5ccc(C(=O)N6CCOCC6)cn5)ncn4)c3CO)ncc2c1 [Compound I-12, 6-tert-Butyl-8-fluoro-2-(2-hydroxymethyl-3-{6-[5-(morpholine-4-carbonyl)-pyridin-2-ylamino]-pyrimidin-4-yl}-phenyl)-2H-phthalazin-1-one] | 2500 |
| CC(C)(C)c1cc(F)c2c(=O)n(-c3cccc(-c4ccnc(Nc5ccc(C(=O)N6CCOCC6)cn5)c4)c3CO)ncc2c1 [Compound I-6, 6-tert-Butyl-8-fluoro-2-(2-hydroxymethyl-3-{2-[5-(morpholine-4-carbonyl)-pyridin-2-ylamino]-pyridin-4-yl}-phenyl)-2H-phthalazin-1-one] | 480 |

Next, values leading:

| IC50 [nM] | SMILES |
| --- | --- |
| 2270 | CN1CCC(c2ccc(Nc3nc(-c4cccc(-n5ncc6cc(C(C)(C)C)cc(F)c6c5=O)c4CO)cn4ccnc34)cc2)CC1 [Compound I-8, 6-tert-Butyl-8-fluoro-2-(2-hydroxymethyl-3-{8-[4-(1-methyl-piperidin-4-yl)-phenylamino]-imidazo[1,2-a]pyrazin-6-yl}-phenyl)-2H-phthalazin-1-one] |
| 1040 | CC(C)(C)c1cc(F)c2c(=O)n(-c3cccc(-c4cc(Nc5ccc(C(=O)N6CCOCC6)cc5)c5nccn5c4)c3CO)ncc2c1 [Compound I-9, 6-tert-Butyl-8-fluoro-2-(2-hydroxymethyl-3-{8-[4-(morpholine-4-carbonyl)-phenylamino]-imidazo[1,2-a]pyridin-6-yl}-phenyl)-2H-phthalazin-1-one] |
| 72 | CN1CCC(c2ccc(Nc3cc(-c4cccc(-n5ncc6cc(C(C)(C)C)cc(F)c6c5=O)c4CO)cn4ccnc34)nc2)CC1 [Compound I-11, 6-tert-Butyl-8-fluoro-2-{2-hydroxymethyl-3-[8-(1′-methyl-1′,2′,3′,4′,5′,6′-hexahydro-[3,4′]bipyridinyl-6-ylamino)-imidazo[1,2-a]pyridin-6-yl]-phenyl}-2H-phthalazin-1-one] |
| 13 | CN1CCN(Cc2ccc(Nc3cc(-c4cccc(-n5ncc6cc(C(C)(C)C)cc(F)c6c5=O)c4CO)nn4ccnc34)nc2)CC1 [Compound I-4, 6-tert-Butyl-8-fluoro-2-(2-hydroxymethyl-3-{8-[5-(4-methyl-piperazin-1-ylmethyl)-pyridin-2-ylamino]-imidazo[1,2-b]pyridazin-6-yl}-phenyl)-2H-phthalazin-1-one] |
| 142 | CC(C)(C)c1cc(F)c2c(=O)n(-c3cccc(-c4cc(Nc5ccc(C(=O)N6CCOCC6)cn5)c5nccn5c4)c3CO)ncc2c1 [Compound I-10, 6-tert-Butyl-8-fluoro-2-(2-hydroxymethyl-3-{8-[5-(morpholine-4-carbonyl)-pyridin-2-ylamino]-imidazo[1,2-a]pyridin-6-yl}-phenyl)-2H-phthalazin-1-one] |
